Laboratory results: ChEMBL document CHEMBL3885881, “DrugMatrix”

Species: Rattus norvegicus
Assay: DrugMatrix - Regimen: Daily Repeat
Type: toxicity, organism-based, Sprague-Dawley
Set-up: regimen Daily Repeat, gender Male, age 6-8 weeks
Conditions: in vivo, po, route oral GAVAGE, vehicle .5 % CMC; for ABSOLUTE BASOPHIL / ABSOLUTE EOSINOPHIL / ABSOLUTE LYMPHOCYTE / ABSOLUTE MONOCYTE / ABSOLUTE SEGMENTED NEUTROPHIL / BASOPHIL / EOSINOPHIL / HEMATOCRIT / LEUKOCYTE COUNT / LYMPHOCYTE / MEAN CORPUSCULAR HEMOGLOBIN / MEAN CORPUSCULAR HEMOGLOBIN CONCENTRATION / MEAN CORPUSCULAR VOLUME / MONOCYTE / NEUTROPHIL / NUCLEATED RED BLOOD CELLS / PLATELET COUNT: tissue Blood; for ALANINE AMINOTRANSFERASE / ALBUMIN / ALKALINE PHOSPHATASE / ASPARTATE AMINOTRANSFERASE / BLOOD UREA NITROGEN / CARBON DIOXIDE / CHLORIDE / CHOLESTEROL / CREATININE / GLUCOSE / LACTATE DEHYDROGENASE / LIPASE / PHOSPHORUS / TOTAL BILIRUBIN / TOTAL PROTEIN / URIC ACID / SODIUM: tissue Plasma
[1] = 0 mg/kg, 72 h, dose level Control, time 3 day
[2] = 0 mg/kg, 120 h, dose level Control, time 5 day
[3] = 23 mg/kg, 72 h, dose level High, time 3 day

Cc1cc2c(s1)Nc1ccccc1N=C2N1CCN(C)CC1 [OLANZAPINE]
ABSOLUTE BASOPHIL [1]: 0 CELLS/uL
ABSOLUTE EOSINOPHIL [1]: 47.67 CELLS/uL
ABSOLUTE LYMPHOCYTE [1]: 15937.67 CELLS/uL
ABSOLUTE MONOCYTE [1]: 138.33 CELLS/uL
ABSOLUTE SEGMENTED NEUTROPHIL [1]: 1443 CELLS/uL
BASOPHIL [1]: 0%
EOSINOPHIL [1]: 0.33%
HEMATOCRIT [1]: 34.43%
LEUKOCYTE COUNT [1]: 17.57 x10E3/uL
LYMPHOCYTE [1]: 90.33%
MEAN CORPUSCULAR HEMOGLOBIN [1]: 24.6 pg
MEAN CORPUSCULAR HEMOGLOBIN CONCENTRATION [1]: 38.88 G/DL
MEAN CORPUSCULAR VOLUME [1]: 63.27 fL
MONOCYTE [1]: 0.83%
NEUTROPHIL [1]: 8.5%
NUCLEATED RED BLOOD CELLS [1]: 0 /100WBC
PLATELET COUNT [1]: 1298 x10E3/uL
ALANINE AMINOTRANSFERASE [1]: 47.67 u/L
ALBUMIN [1]: 4.18 G/DL
ALKALINE PHOSPHATASE [1]: 398.5 u/L
ASPARTATE AMINOTRANSFERASE [1]: 93.17 u/L
BLOOD UREA NITROGEN [1]: 16 mg/dL
CARBON DIOXIDE [1]: 29.17 mmol/L
CHLORIDE [1]: 98.17 MEQ/L
CHOLESTEROL [1]: 68.83 mg/dL
CREATININE [1]: 0.14 mg/dL
GLUCOSE [1]: 151.67 mg/dL
LACTATE DEHYDROGENASE [1]: 597.5 u/L
LIPASE [1]: 9.33 u/L
PHOSPHORUS [1]: 11.97 mg/dL
TOTAL BILIRUBIN [1]: 0.18 mg/dL
TOTAL PROTEIN [1]: 5.82 G/DL
URIC ACID [1]: 1.48 mg/dL
ABSOLUTE BASOPHIL [2]: 0 CELLS/uL
ABSOLUTE EOSINOPHIL [2]: 31 CELLS/uL
ABSOLUTE LYMPHOCYTE [2]: 14327.83 CELLS/uL
ABSOLUTE MONOCYTE [2]: 102.83 CELLS/uL
ABSOLUTE SEGMENTED NEUTROPHIL [2]: 1321.67 CELLS/uL
BASOPHIL [2]: 0%
EOSINOPHIL [2]: 0.17%
HEMATOCRIT [2]: 36.1%
LEUKOCYTE COUNT [2]: 15.78 x10E3/uL
LYMPHOCYTE [2]: 90.5%
MEAN CORPUSCULAR HEMOGLOBIN [2]: 24.48 pg
MEAN CORPUSCULAR HEMOGLOBIN CONCENTRATION [2]: 39.22 G/DL
MEAN CORPUSCULAR VOLUME [2]: 62.4 fL
MONOCYTE [2]: 0.67%
NEUTROPHIL [2]: 8.67%
NUCLEATED RED BLOOD CELLS [2]: 0.17 /100WBC
PLATELET COUNT [2]: 1211.67 x10E3/uL
ALANINE AMINOTRANSFERASE [2]: 49 u/L
ALBUMIN [2]: 4.27 G/DL
ALKALINE PHOSPHATASE [2]: 356.67 u/L
ASPARTATE AMINOTRANSFERASE [2]: 90.17 u/L
BLOOD UREA NITROGEN [2]: 20.5 mg/dL
CARBON DIOXIDE [2]: 29.17 mmol/L
CHLORIDE [2]: 98 MEQ/L
CHOLESTEROL [2]: 69.83 mg/dL
CREATININE [2]: 0.21 mg/dL
GLUCOSE [2]: 149.83 mg/dL
LACTATE DEHYDROGENASE [2]: 322 u/L
LIPASE [2]: 10 u/L
PHOSPHORUS [2]: 12 mg/dL
SODIUM [2]: 142.8 MEQ/L
TOTAL BILIRUBIN [2]: 0.17 mg/dL
TOTAL PROTEIN [2]: 6.1 G/DL
URIC ACID [2]: 1.68 mg/dL
ABSOLUTE BASOPHIL [3]: 0 CELLS/uL
ABSOLUTE EOSINOPHIL [3]: 0 CELLS/uL
ABSOLUTE LYMPHOCYTE [3]: 12570 CELLS/uL
ABSOLUTE MONOCYTE [3]: 145.67 CELLS/uL
ABSOLUTE SEGMENTED NEUTROPHIL [3]: 851 CELLS/uL
BASOPHIL [3]: 0%
EOSINOPHIL [3]: 0%
HEMATOCRIT [3]: 37.27%
LEUKOCYTE COUNT [3]: 13.57 x10E3/uL
LYMPHOCYTE [3]: 92.67%
MEAN CORPUSCULAR HEMOGLOBIN [3]: 24.63 pg
MEAN CORPUSCULAR HEMOGLOBIN CONCENTRATION [3]: 39.1 G/DL
MEAN CORPUSCULAR VOLUME [3]: 63 fL
MONOCYTE [3]: 1%
NEUTROPHIL [3]: 6.33%
NUCLEATED RED BLOOD CELLS [3]: 0 /100WBC
PLATELET COUNT [3]: 1303 x10E3/uL
ALANINE AMINOTRANSFERASE [3]: 52 u/L
ALBUMIN [3]: 4.4 G/DL
ALKALINE PHOSPHATASE [3]: 415.67 u/L
ASPARTATE AMINOTRANSFERASE [3]: 84 u/L
BLOOD UREA NITROGEN [3]: 21.33 mg/dL
CARBON DIOXIDE [3]: 26.33 mmol/L
CHLORIDE [3]: 102 MEQ/L
CHOLESTEROL [3]: 86.67 mg/dL
CREATININE [3]: 0.21 mg/dL
GLUCOSE [3]: 155.67 mg/dL
LACTATE DEHYDROGENASE [3]: 203.33 u/L
LIPASE [3]: 9.67 u/L
PHOSPHORUS [3]: 11.47 mg/dL
SODIUM [3]: 144.27 MEQ/L
TOTAL BILIRUBIN [3]: 0.23 mg/dL
TOTAL PROTEIN [3]: 5.97 G/DL
URIC ACID [3]: 1.83 mg/dL
